In patent publication US6544990B2, “Substituted quinolinecarboxamides as antiviral agents” (Pharmacia & Upjohn Company, priority 2001, dated 2003):

Key:
HCMV polymerase = target: T1, HCMV polymerase (Human cytomegalovirus, UniProt P08546); experiment: HCMV polymerase scintillation proximity assay (SPA); format: biochemical; conditions: CMV polymerase
T1 construct: made in house; host or cells: recombinant baculovirus-infected SF-9 cells
Procedure: The HCMV polymerase assay is performed using a scintillation proximity assay (SPA) as described in several references, such as N. D. Cook, et al., Pharmaceutical Manufacturing International, pages 49-53 (1992); K. Takeuchi, Laboratory Practice, September issue (1992); U.S. Pat. No. 4,568,649 (1986); which are incorporated by reference herein. Reactions are performed in 96-well plates. The assay is conducted in 100 μl volume with 5.4 mM HEPES (pH 7.5), 11.7 mM KCl, 4.5 mM MgCl2, 0.36 mg/ml BSA, and 90 nM 3H-dTTP. Assays are run with and without CHAPS, (3-[(3-Cholamidopropyl)-dimethylammonio]-1-propane-sulfonate) at a final concentration of 2 mM. HCMV polymerase is diluted in enzyme dilution buffer containing 50% glycerol, 250 mM NaCl, 10 mM HEPES (pH 7.5), 100 μg/ml BSA, and 0.01% sodium azide. The HCMV polymerase, which is expressed in recombinant baculovirus-infected SF-9 cells and purified according to literature procedures, is added at 10% (or 10 μl ) of the final reaction volume, i.e., 100 μl. Compounds are diluted in 50% DMSO and 10 μl are added to each well. Control wells contain an equivalent concentration of DMSO. Unless noted otherwise, reactions are initiated via the addition of 6 nM biotinylated poly(dA)-oligo(dT) template/primer to reaction mixtures containing the enzyme, substrate, and compounds of interest. Plates are incubated in a 25 C or 37 C H20 bath and terminated via the addition of 40 μl/reaction of 0.5 M EDTA (pH 8) per well. Reactions are terminated within the time-frame during which substrate incorporation is linear and varied depending upon the enzyme and conditions used, i.e., 30 min. for HCMV polymerase. Ten μl of streptavidin-SPA beads (20 mg/mil in PBS/10% glycerol) are added following termination of the reaction. Plates are incubated 10 min. at 37 C, then equilibrated to room temperature, and counted on a Packard Topcount. Linear regressions are performed and IC50's are calculated using computer software.
A modified version of the above HCMV polymerase assay is performed as described above, but with the following changes: Compounds are diluted in 100% DMSO until final dilution into assay buffer. In the previous assay, compounds are diluted in 50% DMSO. 4.5 mM dithiotherotol (DTT) is added to the polymerase buffer.

HSV polymerase = HSV polymerase (Human herpesvirus 1, UniProt P04293); experiment: Polymerase scintillation proximity assay (SPA), HSV; format: biochemical
VZV polymerase = VZV polymerase (Varicella-zoster virus, UniProt P09252); experiment: Polymerase scintillation proximity assay (SPA), VZV; format: biochemical
Sequence of VZV polymerase (P09252 whole entry): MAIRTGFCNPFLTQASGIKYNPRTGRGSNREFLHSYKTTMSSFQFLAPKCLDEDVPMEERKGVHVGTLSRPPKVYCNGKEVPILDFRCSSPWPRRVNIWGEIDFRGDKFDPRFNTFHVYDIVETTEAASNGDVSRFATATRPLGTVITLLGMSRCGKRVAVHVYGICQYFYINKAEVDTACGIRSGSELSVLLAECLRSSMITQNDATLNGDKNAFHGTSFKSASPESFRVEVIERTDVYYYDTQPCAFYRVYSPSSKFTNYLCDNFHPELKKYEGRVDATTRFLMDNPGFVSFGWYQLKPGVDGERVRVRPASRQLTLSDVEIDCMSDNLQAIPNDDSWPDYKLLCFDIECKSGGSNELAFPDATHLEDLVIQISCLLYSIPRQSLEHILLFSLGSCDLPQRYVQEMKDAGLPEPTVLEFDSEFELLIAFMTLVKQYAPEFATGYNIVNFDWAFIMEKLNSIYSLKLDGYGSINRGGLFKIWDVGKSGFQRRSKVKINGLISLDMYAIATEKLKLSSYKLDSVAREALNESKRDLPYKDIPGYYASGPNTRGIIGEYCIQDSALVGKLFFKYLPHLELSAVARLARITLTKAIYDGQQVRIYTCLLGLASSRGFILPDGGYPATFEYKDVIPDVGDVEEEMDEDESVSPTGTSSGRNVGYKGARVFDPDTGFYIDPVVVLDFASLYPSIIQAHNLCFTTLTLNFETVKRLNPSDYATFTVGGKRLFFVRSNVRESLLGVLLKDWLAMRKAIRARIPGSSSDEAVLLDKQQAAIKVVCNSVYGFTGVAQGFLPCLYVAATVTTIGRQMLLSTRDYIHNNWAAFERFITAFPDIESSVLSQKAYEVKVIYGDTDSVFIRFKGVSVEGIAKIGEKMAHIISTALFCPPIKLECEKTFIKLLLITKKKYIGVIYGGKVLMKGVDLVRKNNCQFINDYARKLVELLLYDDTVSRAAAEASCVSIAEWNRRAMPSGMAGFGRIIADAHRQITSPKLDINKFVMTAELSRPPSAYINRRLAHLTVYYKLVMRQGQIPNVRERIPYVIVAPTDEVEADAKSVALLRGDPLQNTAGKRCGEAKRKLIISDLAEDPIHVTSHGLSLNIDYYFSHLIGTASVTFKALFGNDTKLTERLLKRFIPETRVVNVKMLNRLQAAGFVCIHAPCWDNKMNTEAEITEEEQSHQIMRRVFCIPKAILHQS

T1 sequence (P08546 whole entry): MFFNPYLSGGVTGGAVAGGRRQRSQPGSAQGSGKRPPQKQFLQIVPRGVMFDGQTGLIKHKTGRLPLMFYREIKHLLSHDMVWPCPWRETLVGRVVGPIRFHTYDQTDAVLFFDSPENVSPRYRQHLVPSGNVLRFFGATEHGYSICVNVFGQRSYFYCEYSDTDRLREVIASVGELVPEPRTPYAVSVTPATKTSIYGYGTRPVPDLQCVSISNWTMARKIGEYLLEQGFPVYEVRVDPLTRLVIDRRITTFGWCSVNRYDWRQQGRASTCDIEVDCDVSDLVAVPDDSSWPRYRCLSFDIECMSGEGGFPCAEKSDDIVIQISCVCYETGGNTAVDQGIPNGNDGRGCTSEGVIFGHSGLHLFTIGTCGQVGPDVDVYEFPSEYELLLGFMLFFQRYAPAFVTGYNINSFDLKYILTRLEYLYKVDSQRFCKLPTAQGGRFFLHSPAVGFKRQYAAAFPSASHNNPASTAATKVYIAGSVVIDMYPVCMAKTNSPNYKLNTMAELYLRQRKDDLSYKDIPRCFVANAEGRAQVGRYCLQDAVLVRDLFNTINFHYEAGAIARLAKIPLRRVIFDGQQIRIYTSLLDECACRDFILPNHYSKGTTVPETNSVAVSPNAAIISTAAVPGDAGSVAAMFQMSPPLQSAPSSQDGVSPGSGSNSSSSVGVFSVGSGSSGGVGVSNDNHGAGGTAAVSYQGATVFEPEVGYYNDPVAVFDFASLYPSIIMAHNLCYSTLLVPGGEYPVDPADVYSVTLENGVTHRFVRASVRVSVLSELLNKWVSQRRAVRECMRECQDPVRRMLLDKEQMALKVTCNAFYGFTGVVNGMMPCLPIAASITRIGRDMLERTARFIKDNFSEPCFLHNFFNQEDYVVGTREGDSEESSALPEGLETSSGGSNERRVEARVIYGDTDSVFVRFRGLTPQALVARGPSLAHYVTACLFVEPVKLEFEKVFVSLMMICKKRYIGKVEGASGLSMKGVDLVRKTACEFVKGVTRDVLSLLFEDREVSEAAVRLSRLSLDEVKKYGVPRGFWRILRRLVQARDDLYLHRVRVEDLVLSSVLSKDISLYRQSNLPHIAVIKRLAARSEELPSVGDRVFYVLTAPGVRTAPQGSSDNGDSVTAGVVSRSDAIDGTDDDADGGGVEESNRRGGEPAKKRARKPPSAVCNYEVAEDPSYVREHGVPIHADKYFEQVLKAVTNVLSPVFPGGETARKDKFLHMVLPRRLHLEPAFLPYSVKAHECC
Sequence of HSV polymerase (P04293 whole entry): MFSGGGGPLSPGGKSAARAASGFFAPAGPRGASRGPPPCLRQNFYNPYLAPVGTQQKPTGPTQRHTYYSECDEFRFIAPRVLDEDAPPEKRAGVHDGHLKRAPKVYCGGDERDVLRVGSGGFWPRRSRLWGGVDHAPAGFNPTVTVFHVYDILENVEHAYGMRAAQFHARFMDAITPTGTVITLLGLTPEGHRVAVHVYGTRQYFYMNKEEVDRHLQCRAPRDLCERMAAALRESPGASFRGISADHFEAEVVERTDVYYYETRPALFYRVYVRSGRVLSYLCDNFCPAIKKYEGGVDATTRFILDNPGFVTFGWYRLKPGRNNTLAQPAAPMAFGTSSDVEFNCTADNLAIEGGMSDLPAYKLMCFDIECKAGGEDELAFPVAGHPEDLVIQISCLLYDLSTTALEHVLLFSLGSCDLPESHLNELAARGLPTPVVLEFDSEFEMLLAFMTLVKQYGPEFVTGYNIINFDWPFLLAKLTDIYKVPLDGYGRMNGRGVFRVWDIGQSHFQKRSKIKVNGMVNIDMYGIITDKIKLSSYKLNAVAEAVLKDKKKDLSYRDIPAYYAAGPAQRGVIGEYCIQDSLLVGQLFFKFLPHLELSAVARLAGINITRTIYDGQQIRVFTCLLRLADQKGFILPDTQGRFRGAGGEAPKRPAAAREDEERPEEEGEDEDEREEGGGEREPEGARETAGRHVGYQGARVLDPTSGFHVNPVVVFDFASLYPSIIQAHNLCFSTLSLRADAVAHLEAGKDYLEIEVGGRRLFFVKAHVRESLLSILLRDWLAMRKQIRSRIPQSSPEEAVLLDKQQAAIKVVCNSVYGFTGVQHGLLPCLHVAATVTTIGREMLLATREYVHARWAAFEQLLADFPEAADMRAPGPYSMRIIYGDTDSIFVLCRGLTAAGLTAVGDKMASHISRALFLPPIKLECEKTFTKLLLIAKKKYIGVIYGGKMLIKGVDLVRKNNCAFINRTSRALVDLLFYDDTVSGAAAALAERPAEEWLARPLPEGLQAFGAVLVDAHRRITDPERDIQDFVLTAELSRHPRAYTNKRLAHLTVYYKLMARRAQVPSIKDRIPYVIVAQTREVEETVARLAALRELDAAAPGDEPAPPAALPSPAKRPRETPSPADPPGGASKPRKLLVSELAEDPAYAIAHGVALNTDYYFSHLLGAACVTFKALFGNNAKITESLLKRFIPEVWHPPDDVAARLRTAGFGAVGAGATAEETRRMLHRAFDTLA

SMILES | melting point [°C] | IC50 (HCMV polymerase) [µM] | IC50 (HSV polymerase) [µM] | IC50 (VZV polymerase) [µM]
CN(CC#Cc1cc(CN2CCOCC2)cc2c(=O)c(C(=O)NCc3ccc(Cl)cc3)cn(C)c12)CCO [Example 22, N-(4-chlorobenzyl)-8-{3-[(2-hydroxyethyl)(methyl)amino]prop-1-ynyl}-1-methyl-6-(morpholin-4-ylmethyl)-4-oxo-1,4-dihydroquinoline-3-carboxamide] | 148 to 149 | 0.82 | – | –
CN(C)CC#Cc1cc(CN2CCOCC2)cc2c(=O)c(C(=O)NCc3ccc(Cl)cc3)cn(C)c12 [Example 5, N-(4-chlorobenzyl)-8-[3-(dimethylamino)-1-propynyl]-1-methyl-6-(4-morpholinylmethyl)-4-oxo-1,4-dihydro-3-quinolinecarboxamide] | 154 to 157 | 1.6 | – | –
Cn1cc(C(=O)NCc2ccc(Cl)cc2)c(=O)c2cc(CN3CCOCC3)cc(C#CCN3CCN(CCO)CC3)c21 [Example 26, N-(4-chlorobenzyl)-8-{3-[4-(2-hydroxyethyl)piperazin-1-yl]prop-1-ynyl}-1-methyl-6-(morpholin-4-ylmethyl)-4-oxo-1,4-dihydroquinoline-3-carboxamide] | – | 1.29 | – | –
Cn1cc(C(=O)NCc2ccc(Cl)cc2)c(=O)c2cc(CN3CCOCC3)cc(C#CCN3CCCC(O)C3)c21 (centres unmarked) [Example 28, N-(4-chlorobenzyl)-8-[3-(3-hydroxypiperidin-1-yl)prop-1-ynyl]-1-methyl-6-(morpholin-4-ylmethyl)-4-oxo-1,4-dihydroquinoline-3-carboxamide] | – | 0.82 | – | –
Cn1cc(C(=O)NCc2ccc(Cl)cc2)c(=O)c2cc(CN3CCOCC3)cc(C#CCF)c21 [Example 12, N-(4-chlorobenzyl)-8-(3-fluoroprop-1-ynyl)-1-methyl-6-(morpholin-4-ylmethyl)-4-oxo-1,4-dihydroquinoline-3-carboxamide] | 189 to 191 | 0.77 | – | –
Cn1cc(C(=O)NCc2ccc(Cl)cc2)c(=O)c2cc(CN3CCOCC3)cc(C#CCN3CCC(O)CC3)c21 [Example 19, N-(4-chlorobenzyl)-8-[3-(4-hydroxypiperidin-1-yl)prop-1-ynyl]-1-methyl-6-(morpholin-4-ylmethyl)-4-oxo-1,4-dihydroquinoline-3-carboxamide] | 180 to 183 | 1.01 | – | –
Cn1cc(C(=O)NCc2ccc(Cl)cc2)c(=O)c2cc(CN3CCOCC3)cc(C#CCN3CCC[C@H]3CO)c21 [Example 27, N-(4-chlorobenzyl)-8-{3-[(2S)-2-(hydroxymethyl)pyrrolidin-1-yl]prop-1-ynyl}-1-methyl-6-(morpholin-4-ylmethyl)-4-oxo-1,4-dihydroquinoline-3-carboxamide] | – | 0.94 | – | –
CN(CC#Cc1cc(CN2CCOCC2)cc2c(=O)c(C(=O)NCc3ccc(Cl)cc3)cn(C)c12)CC(O)CO (centres unmarked) [Example 21, N-(4-chlorobenzyl)-8-{3-[(2,3-dihydroxypropyl)(methyl)amino]prop-1-ynyl}-1-methyl-6-(morpholin-4-ylmethyl)-4-oxo-1,4-dihydroquinoline-3-carboxamide] | 140 to 142 | 0.8 | – | –
Cn1cc(C(=O)NCc2ccc(Cl)cc2)c(=O)c2cc(CN3CCOCC3)cc(C#CCN3CCC(O)C3)c21 (centres unmarked) [Example 20, N-(4-chlorobenzyl)-8-[3-(3-hydroxypyrrolidin-1-yl)prop-1-ynyl]-1-methyl-6-(morpholin-4-ylmethyl)-4-oxo-1,4-dihydroquinoline-3-carboxamide] | 144 to 146 | 1.02 | – | –
CN(C)CC#Cc1cc(CC2CCOCC2)cc2c(=O)c(C(=O)NCc3ccc(Cl)cc3)cn(C)c12 [Example 3, N-(4-chlorobenzyl)-8-[3-(dimethylamino)-1-propynyl]-1-methyl-4-oxo-6-(tetrahydro-2H-pyran-4-ylmethyl)-1,4-dihydro-3-quinolinecarboxamide] | 157 to 159 | 0.87 | – | –

Now those with a lower IC50 (HCMV polymerase), led by results:

melting point [°C] | IC50 (HCMV polymerase) [µM] | IC50 (HSV polymerase) [µM] | IC50 (VZV polymerase) [µM] | SMILES
– | 0.74 | – | – | Cn1cc(C(=O)NCc2ccc(Cl)cc2)c(=O)c2cc(CN3CCOCC3)cc(C#CCN3CCCC(CO)C3)c21 (centres unmarked) [Example 25, N-(4-chlorobenzyl)-8-{3-[3-(hydroxymethyl)piperidin-1-yl]prop-1-ynyl}-1-methyl-6-(morpholin-4-ylmethyl)-4-oxo-1,4-dihydroquinoline-3-carboxamide]
– | 0.73 | – | – | Cn1cc(C(=O)NCc2ccc(Cl)cc2)c(=O)c2cc(CN3CCOCC3)cc(C#CCN3CCC[C@@H]3CO)c21 [Example 29, N-(4-chlorobenzyl)-8-{3-[(2R)-2-(hydroxymethyl)pyrrolidin-1-yl]prop-1-ynyl}-1-methyl-6-(morpholin-4-ylmethyl)-4-oxo-1,4-dihydroquinoline-3-carboxamide]
– | 0.71 | – | – | Cn1cc(C(=O)NCc2ccc(Cl)cc2)c(=O)c2cc(CN3CCOCC3)cc(C#CCN3CCCCC3CCO)c21 (centres unmarked) [Example 30, N-(4-chlorobenzyl)-8-{3-[2-(2-hydroxyethyl)piperidin-1-yl]prop-1-ynyl}-1-methyl-6-(morpholin-4-ylmethyl)-4-oxo-1,4-dihydroquinoline-3-carboxamide]
178 to 180 | 0.61 | – | – | CC(O)CC#Cc1cc(CN2CCOCC2)cc2c(=O)c(C(=O)NCc3ccc(Cl)cc3)cn(C)c12 (centres unmarked) [Example 18, N-(4-chlorobenzyl)-8-(4-hydroxypent-1-ynyl)-1-methyl-6-(morpholin-4-ylmethyl)-4-oxo-1,4-dihydroquinoline-3-carboxamide]
190 to 193 | 0.56 | – | – | Cn1cc(C(=O)NCc2ccc(Cl)cc2)c(=O)c2cc(CN3CCOCC3)cc(C#CCC(CO)CO)c21 [Example 24, N-(4-chlorobenzyl)-8-[5-hydroxy-4-(hydroxymethyl)pent-1-ynyl]-1-methyl-6-(morpholin-4-ylmethyl)-4-oxo-1,4-dihydroquinoline-3-carboxamide]
171 to 173 | 0.55 | – | – | Cn1cc(C(=O)NCc2ccc(Cl)cc2)c(=O)c2cc(CN3CCOCC3)cc(C#CCC[C@@H]3COC(=O)N3)c21 [Example 9, N-(4-chlorobenzyl)-1-methyl-6-(4-morpholinylmethyl)-4-oxo-8-{4-[(4R)-2-oxo-1,3-oxazolidin-4-yl]-1-butynyl}-1,4-dihydro-3-quinolinecarboxamide]
– | 0.52 | – | – | Cc1cncn1CC#Cc1cc(CN2CCOCC2)cc2c(=O)c(C(=O)NCc3ccc(Cl)cc3)cn(C)c12 [Example 14, N-(4-chlorobenzyl)-1-methyl-8-[3-(5-methyl-1H-imidazol-1-yl)prop-1-ynyl]-6-(morpholin-4-ylmethyl)-4-oxo-1,4-dihydroquinoline-3-carboxamide]
– | 0.49 | 0.55 | 0.33 | CCCCN(CC#Cc1cc(CN2CCOCC2)cc2c(=O)c(C(=O)NCc3ccc(Cl)cc3)cn(C)c12)CCO [Example 31, 8-{3-[butyl(2-hydroxyethyl)amino]prop-1-ynyl}-N-(4-chlorobenzyl)-1-methyl-6-(morpholin-4-ylmethyl)-4-oxo-1,4-dihydroquinoline-3-carboxamide]
186 to 188 | 0.32 | – | – | Cn1cc(C(=O)NCc2ccc(Cl)cc2)c(=O)c2cc(CC3CCOCC3)cc(C#CCCO)c21 [Example 2, N-(4-chlorobenzyl)-8-(4-hydroxy-1-butynyl)-1-methyl-4-oxo-6-(tetrahydro-2H-pyran-4-ylmethyl)-1,4-dihydro-3-quinolinecarboxamide]
